Results published in patent US20230339981A1, “KRAS G12D MODULATING COMPOUNDS” (priority 2022, published 2023).

How the values were obtained:
[1] = system: GP2D (KRAS G12D) cells; experiment: 2D cell viability assay (CellTiter-Glo); assay type: cell-based; details: GP2d, 96 h, 4 days
Experimental: Example B. 2D Cell Viability Assay
Compounds were tested in a 384-well format for their ability to inhibit the viability of GP2D (KRAS G12D) cells in 2D assays. Compounds were serially diluted (1:3) in DMSO. The LabCyte ECHO Acoustic dispenser system was used to pre-spot assay plates with 200 nL of test molecule per well. 1000 cells/well (40 μL volume per well) in RPMI medium with 10% FBS, and Penicillin-Streptomycin-Glutamine were plated in pre-spotted 384-well plates (Greiner, Catalog #781076) on the BioTEK EL406 liquid dispenser with a 5 μL dispensing cassette (BioTek 7170011). The plates were incubated at 37° C., 5% CO2 for 4 days before addition of CellTiter-Glo (CTG) reagent and measurement of luminescence signal. EC50 values were defined as the compound concentration that causes a 50% decrease in luminescence signal and were calculated using a sigmoidal dose-response model to generate curve fits.

[2] = target: GDP-loaded KRAS G12D (Homo sapiens (Human), UniProt P01116, G12D); experiment: KRAS G12D (GDP) biochemical assay (TR-FRET probe displacement); assay type: binding; details: 2 hours
Experimental: Example A. KRAS G12D (GDP) Biochemical Assay
Compounds were tested for binding to GDP-loaded KRAS G12D in a 384-well assay format using a TR-FRET probe displacement assay in buffer consisting of 50 mM Hepes (pH 7.4), 150 mM NaCl, 5 mM MgCl2 and 0.005% Tween-20. […] Compounds were serially diluted (1:3) in DMSO. The LabCyte ECHO Acoustic dispenser system was used to pre-spot the assay plates (384-well Non-Binding Surface plates, Corning, Catalog #3824) with 50 nL of compound. The compounds were pre-incubated with 5 μL of 2× final enzyme concentration for 30 minutes before adding 5 μL of 2× final concentration of Eu-streptavidin and TR-FRET probe (10 μL final reaction volume). The plates were incubated at room temperature for 2 hours before measuring TR-FRET ratio on the Envision plate reader. IC50 values were defined as the compound concentration that causes a 50% decrease in TR-FRET ratio and were calculated using a sigmoidal dose-response model to generate curve fits.

GDP-loaded KRAS G12D, sequence (P01116-2 other isoform, or with tags, fused parts or gaps G12D): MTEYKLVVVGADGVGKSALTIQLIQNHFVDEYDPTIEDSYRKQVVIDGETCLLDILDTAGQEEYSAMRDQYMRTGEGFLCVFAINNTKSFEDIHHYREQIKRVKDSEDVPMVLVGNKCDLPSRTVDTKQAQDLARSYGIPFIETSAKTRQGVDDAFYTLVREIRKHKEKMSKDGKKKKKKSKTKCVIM

SMILES | EC50 [1] [nM] | IC50 [2] [nM]
Oc1cc(-c2nc3c4c(nc(OC[C@@]56CCCN5C[C@H](F)C6)nc4c2F)N2C[C@H]4CC[C@H](N4)[C@H]2CO3)c2c(F)c(F)c(F)c(F)c2c1 [Example 12, 5,6,7,8-tetrafluoro-4-((5aS,6S,9R)-1-fluoro-12-(((2R,7aS)-2-fluorotetrahydro-1H-pyrrolizin-7a(5H)-yl)methoxy)-5a,6,7,8,9,10-hexahydro-5H-4-oxa-3,10a,11,13,14-pentaaza-6,9-methanonaphtho[1,8-ab]heptalen-2-yl)naphthalen-2-ol] | 130 | 6
Oc1cc(-c2nc3c4c(nc(OC[C@@]56CCCN5C[C@H](F)C6)nc4c2F)N2C[C@H]4CC[C@H](N4)[C@H]2CO3)c2c(CC3CC3)c(F)ccc2c1 [Example 14, 5-(cyclopropylmethyl)-6-fluoro-4-((5aS,6S,9R)-1-fluoro-12-(((2R,7aS)-2-fluorotetrahydro-1H-pyrrolizin-7a(5H)-yl)methoxy)-5a,6,7,8,9,10-hexahydro-5H-4-oxa-3,10a,11,13,14-pentaaza-6,9-methanonaphtho[1,8-ab]heptalen-2-yl)naphthalen-2-ol] | 530 | 34
Oc1cc(-c2nc3c4c(nc(OC[C@@]56CCCN5C[C@H](F)C6)nc4c2F)N2C[C@H]4CC[C@H](N4)[C@@H]2CO3)c2ccccc2c1 [Example 19, 4-((5aR,6S,9R)-1-fluoro-12-(((2R,7aS)-2-fluorotetrahydro-1H-pyrrolizin-7a(5H)-yl)methoxy)-5a,6,7,8,9,10-hexahydro-5H-4-oxa-3,10a,11,13,14-pentaaza-6,9-methanonaphtho[1,8-ab]heptalen-2-yl)naphthalen-2-ol] | 3300 | 590
C#Cc1c(F)ccc2cc(O)cc(-c3nc4c5c(nc(OCC6(CN7CCOCC7)CC6)nc5c3F)N3C[C@H]5CC[C@H](N5)[C@H]3CO4)c12 [Example 28, 5-ethynyl-6-fluoro-4-((5aS,6S,9R)-1-fluoro-12-((1-(morpholinomethyl)cyclopropyl)methoxy)-5a,6,7,8,9,10-hexahydro-5H-4-oxa-3,10a,11,13,14-pentaaza-6,9-methanonaphtho[1,8-ab]heptalen-2-yl)naphthalen-2-ol] | 7 | 0.6
Fc1cccc2c(-c3nc4c5c(nc(OC[C@@]67CCCN6C[C@H](F)C7)nc5c3F)N3C[C@H]5CC[C@H](N5)[C@H]3CO4)cccc12 [Example 31, (5aS,6S,9R)-1-fluoro-2-(5-fluoronaphthalen-1-yl)-12-(((2R,7aS)-2-fluorotetrahydro-1H-pyrrolizin-7a(5H)-yl)methoxy)-5a,6,7,8,9,10-hexahydro-5H-4-oxa-3,10a,11,13,14-pentaaza-6,9-methanonaphtho[1,8-ab]heptalene] | > 1000 | 4900
C#Cc1c(F)ccc2cc(O)cc(-c3nc4c5c(nc(OCC6(CN7CCC(F)CC7)CC6)nc5c3F)N3C[C@H]5CC[C@H](N5)[C@H]3CO4)c12 [Example 32, 5-ethynyl-6-fluoro-4-((5aS,6S,9R)-1-fluoro-12-((1-((4-fluoropiperidin-1-yl)methyl)cyclopropyl)methoxy)-5a,6,7,8,9,10-hexahydro-5H-4-oxa-3,10a,11,13,14-pentaaza-6,9-methanonaphtho[1,8-ab]heptalen-2-yl)naphthalen-2-ol] | 2 | 0.2
C#Cc1c(F)ccc2cc(O)cc(-c3nc4c5c(nc(OCC6(CN7CCC[C@H](F)C7)CC6)nc5c3F)N3C[C@H]5CC[C@H](N5)[C@H]3CO4)c12 [Example 33, 5-ethynyl-6-fluoro-4-((5aS,6S,9R)-1-fluoro-12-((1-(((S)-3-fluoropiperidin-1-yl)methyl)cyclopropyl)methoxy)-5a,6,7,8,9,10-hexahydro-5H-4-oxa-3,10a,11,13,14-pentaaza-6,9-methanonaphtho[1,8-ab]heptalen-2-yl)naphthalen-2-ol] | 3 | 0.3
C#Cc1c(F)ccc2cc(O)cc(-c3nc4c5c(nc(OCC6(CN7CCC[C@@H](F)C7)CC6)nc5c3F)N3C[C@H]5CC[C@H](N5)[C@H]3CO4)c12 [Example 34, 5-ethynyl-6-fluoro-4-((5aS,6S,9R)-1-fluoro-12-((1-(((R)-3-fluoropiperidin-1-yl)methyl)cyclopropyl)methoxy)-5a,6,7,8,9,10-hexahydro-5H-4-oxa-3,10a,11,13,14-pentaaza-6,9-methanonaphtho[1,8-ab]heptalen-2-yl)naphthalen-2-ol] | 2 | 0.2
C#Cc1c(F)ccc2cc(O)cc(-c3nc4c5c(nc(OC[C@@]67CCCN6[C@H](CN=[N+]=[N-])CC7)nc5c3F)N3C[C@H]5CC[C@H](N5)[C@H]3CO4)c12 [Example 36, 4-((5aS,6S,9R)-12-(((3S,7aS)-3-(azidomethyl)tetrahydro-1H-pyrrolizin-7a(5H)-yl)methoxy)-1-fluoro-5a,6,7,8,9,10-hexahydro-5H-4-oxa-3,10a,11,13,14-pentaaza-6,9-methanonaphtho[1,8-ab]heptalen-2-yl)-5-ethynyl-6-fluoronaphthalen-2-ol] | 4 | 0.2
Oc1cc(-c2nc3c4c(nc(OC[C@@]56CCCN5C[C@H](F)C6)nc4c2F)N2C[C@H]4CC[C@H](N4)[C@H]2CC3)c2c(OC3CC3)c(F)ccc2c1 [Example 37, 5-cyclopropoxy-6-fluoro-4-((5aR,6S,9R)-1-fluoro-12-(((2R,7aS)-2-fluorotetrahydro-1H-pyrrolizin-7a(5H)-yl)methoxy)-4,5,5a,6,7,8,9,10-octahydro-3,10a,11,13,14-pentaaza-6,9-methanonaphtho[1,8-ab]heptalen-2-yl)naphthalen-2-ol] | 9 | 1
C#Cc1c(F)ccc2cc(O)cc(-c3nc4c5c(nc(OCC6(CN7CC[C@@H](C(F)(F)F)C7)CC6)nc5c3F)N3C[C@H]5CC[C@H](N5)[C@H]3CO4)c12 [Example 43, 5-ethynyl-6-fluoro-4-((5aS,6S,9R)-1-fluoro-12-((1-(((R)-3-(trifluoromethyl)pyrrolidin-1-yl)methyl)cyclopropyl)methoxy)-5a,6,7,8,9,10-hexahydro-5H-4-oxa-3,10a,11,13,14-pentaaza-6,9-methanonaphtho[1,8-ab]heptalen-2-yl)naphthalen-2-ol] | 5 | 0.6
C#Cc1c(F)ccc2cc(O)cc(-c3nc4c5c(nc(OCC6(CN7CC[C@H](C(F)(F)F)C7)CC6)nc5c3F)N3C[C@H]5CC[C@H](N5)[C@H]3CO4)c12 [Example 44, 5-ethynyl-6-fluoro-4-((5aS,6S,9R)-1-fluoro-12-((1-(((S)-3-(trifluoromethyl)pyrrolidin-1-yl)methyl)cyclopropyl)methoxy)-5a,6,7,8,9,10-hexahydro-5H-4-oxa-3,10a,11,13,14-pentaaza-6,9-methanonaphtho[1,8-ab]heptalen-2-yl)naphthalen-2-ol] | 7 | 2
C#Cc1c(F)ccc2cc(O)cc(-c3nc4c5c(nc(OC[C@@]67CCCN6[C@H](COC(=O)N(C)C(F)(F)F)CC7)nc5c3F)N3C[C@H]5CC[C@H](N5)[C@H]3CO4)c12 [Example 45, ((3S,7aS)-7a-((((5aS,6S,9R)-2-(8-ethynyl-7-fluoro-3-hydroxynaphthalen-1-yl)-1-fluoro-5a,6,7,8,9,10-hexahydro-5H-4-oxa-3,10a,11,13,14-pentaaza-6,9-methanonaphtho[1,8-ab]heptalen-12-yl)oxy)methyl)hexahydro-1H-pyrrolizin-3-yl)methyl methyl(trifluoromethyl)carbamate] | 4 | 0.3
Fc1c(-c2cccc3ccccc23)nc2c3c(nc(OC[C@@]45CCCN4C[C@H](F)C5)nc13)N1C[C@H]3CC[C@H](N3)[C@H]1CO2 [Example 46, (5aS,6S,9R)-1-fluoro-12-(((2R,7aS)-2-fluorotetrahydro-1H-pyrrolizin-7a(5H)-yl)methoxy)-2-(naphthalen-1-yl)-5a,6,7,8,9,10-hexahydro-5H-4-oxa-3,10a,11,13,14-pentaaza-6,9-methanonaphtho[1,8-ab]heptalene] | > 1000 | 910
Fc1cc(-c2nc3c4c(nc(OC[C@@]56CCCN5C[C@H](F)C6)nc4c2F)N2C[C@H]4CC[C@H](N4)[C@H]2CO3)c2ccccc2c1 [Example 47, (5aS,6S,9R)-1-fluoro-2-(3-fluoronaphthalen-1-yl)-12-(((2R,7aS)-2-fluorotetrahydro-1H-pyrrolizin-7a(5H)-yl)methoxy)-5a,6,7,8,9,10-hexahydro-5H-4-oxa-3,10a,11,13,14-pentaaza-6,9-methanonaphtho[1,8-ab]heptalene] | > 1000 | 3400
Fc1ccc2ccccc2c1-c1nc2c3c(nc(OC[C@@]45CCCN4C[C@H](F)C5)nc3c1F)N1C[C@H]3CC[C@H](N3)[C@H]1CO2 [Example 48, (5aS,6S,9R)-1-fluoro-2-(2-fluoronaphthalen-1-yl)-12-(((2R,7aS)-2-fluorotetrahydro-1H-pyrrolizin-7a(5H)-yl)methoxy)-5a,6,7,8,9,10-hexahydro-5H-4-oxa-3,10a,11,13,14-pentaaza-6,9-methanonaphtho[1,8-ab]heptalene] | > 1000 | 2200
